Experiment [1] concerns XNr-1. Put plainly: Left-sided XNr-1 expression by whole mount in situ hybridization. Also noted: species or system Xenopus laevis. As to conditions: in vivo. The protocol: As outlined above, effects on asymmetry were initially evaluated by inspection of embryo morphology. […] Embryos were treated with the H^+-V-ATPase inhibitory compound concanamycin.
(§1) Whole mount in situ hybridization (WISH) on Xenopus was performed according to standard methods. DNA used to transcribe in situ hybridization probes were XNr-1 (Lohr et al., 1998, Developmental Genetics 23: 194-202; Lowe et al., 1996, Nature 381: 158-161); cShh (Levin et al., 1995, Cell 82: 803-814); cNodal (Levin et al., 1995, Cell 82: 803-814).

Experiment [2] has as its system Sonic hedgehog (Shh), Nodal. Put plainly: Sidedness of Shh and Nodal expression in chick embryos (in ovo culture, in situ hybridization). As to conditions: in vivo.
From the text: We examined the effect of inhibiting H^+-V-ATPase activity on the expression of the early left-sided marker Sonic hedgehog (Shh). Inhibition of H^+-V-ATPase activity following treatment with concanamycin or DCCD specifically randomized the expression of Shh, as well as that of and the downstream marker Nodal. Compared to controls, in which these two markers are always left-sided, concanamycin induced aberrant sidedness of Shh expression in 67% and Nodal in 24% of embryos. Thus, as in Xenopus, H^+-V-ATPase is upstream of the known asymmetric gene cascade, and is required for normal LR patterning in chicks.
To perform a pharmacological screen on chick embryos with minimal disturbance to normal morphogenesis, we optimized a chicken in ovo culture system. A small hole was made on the top of each egg (prior to incubation), and 5 ml of light albumin was removed. […]. Eggs were securely wrapped with Scotch tape, incubated at 37.5° C. to the desired stages, then fixed for analysis of laterality markers by in situ hybridization.
as §1

SMILES strings stand for the structures.

In the case of `C/C=C/[C@H]1O[C@@](O)([C@@H](C)[C@H](O)[C@H](C)[C@H]2OC(=O)/C(OC)=C/C(C)=C/[C@@H](C)[C@@H](O)[C@@H](CC)[C@@H](O)[C@H](C)C/C(C)=C/C=C/[C@@H]2OC)C[C@@H](O)[C@@H]1C` [concanamycin], the “left-sided gene expression of XNr-1” value in experiment [1] was “perturbed the normally left-sided gene expression”. Besides, in experiment [2], the “aberrant sidedness of Nodal expression, % of embryos” value is 24%; the “aberrant sidedness of Shh expression, % of embryos” value came to 67%; the “expression of Shh and Nodal (sidedness)” value is listed as “randomized”.

(Values after US20080131920A1, “Ion flux in biological processes, and methods related thereto” (priority 2005, published 2008).)
